Source: US11492346B2, “Benzisoxazole sulfonamide derivatives” (Pfizer Inc., priority 2019, dated 2022)
Like-named read-outs stand apart in the source and are kept apart here.

Tests used:
KAT6A = KAT6A (Homo sapiens (Human), UniProt Q92794); assay: KAT assay (SAMDI mass spectrometry), KAT6A; type: biochemical;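 also: Baculovirus-expressed KAT6A acetylating histone H3 (1-21) peptide (2 µM), 30-60 min at room temperature, % product conversion fitted to Morrison equation for tight-binding competitive inhibitors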
Chain of KAT6A (Q92794 whole entry): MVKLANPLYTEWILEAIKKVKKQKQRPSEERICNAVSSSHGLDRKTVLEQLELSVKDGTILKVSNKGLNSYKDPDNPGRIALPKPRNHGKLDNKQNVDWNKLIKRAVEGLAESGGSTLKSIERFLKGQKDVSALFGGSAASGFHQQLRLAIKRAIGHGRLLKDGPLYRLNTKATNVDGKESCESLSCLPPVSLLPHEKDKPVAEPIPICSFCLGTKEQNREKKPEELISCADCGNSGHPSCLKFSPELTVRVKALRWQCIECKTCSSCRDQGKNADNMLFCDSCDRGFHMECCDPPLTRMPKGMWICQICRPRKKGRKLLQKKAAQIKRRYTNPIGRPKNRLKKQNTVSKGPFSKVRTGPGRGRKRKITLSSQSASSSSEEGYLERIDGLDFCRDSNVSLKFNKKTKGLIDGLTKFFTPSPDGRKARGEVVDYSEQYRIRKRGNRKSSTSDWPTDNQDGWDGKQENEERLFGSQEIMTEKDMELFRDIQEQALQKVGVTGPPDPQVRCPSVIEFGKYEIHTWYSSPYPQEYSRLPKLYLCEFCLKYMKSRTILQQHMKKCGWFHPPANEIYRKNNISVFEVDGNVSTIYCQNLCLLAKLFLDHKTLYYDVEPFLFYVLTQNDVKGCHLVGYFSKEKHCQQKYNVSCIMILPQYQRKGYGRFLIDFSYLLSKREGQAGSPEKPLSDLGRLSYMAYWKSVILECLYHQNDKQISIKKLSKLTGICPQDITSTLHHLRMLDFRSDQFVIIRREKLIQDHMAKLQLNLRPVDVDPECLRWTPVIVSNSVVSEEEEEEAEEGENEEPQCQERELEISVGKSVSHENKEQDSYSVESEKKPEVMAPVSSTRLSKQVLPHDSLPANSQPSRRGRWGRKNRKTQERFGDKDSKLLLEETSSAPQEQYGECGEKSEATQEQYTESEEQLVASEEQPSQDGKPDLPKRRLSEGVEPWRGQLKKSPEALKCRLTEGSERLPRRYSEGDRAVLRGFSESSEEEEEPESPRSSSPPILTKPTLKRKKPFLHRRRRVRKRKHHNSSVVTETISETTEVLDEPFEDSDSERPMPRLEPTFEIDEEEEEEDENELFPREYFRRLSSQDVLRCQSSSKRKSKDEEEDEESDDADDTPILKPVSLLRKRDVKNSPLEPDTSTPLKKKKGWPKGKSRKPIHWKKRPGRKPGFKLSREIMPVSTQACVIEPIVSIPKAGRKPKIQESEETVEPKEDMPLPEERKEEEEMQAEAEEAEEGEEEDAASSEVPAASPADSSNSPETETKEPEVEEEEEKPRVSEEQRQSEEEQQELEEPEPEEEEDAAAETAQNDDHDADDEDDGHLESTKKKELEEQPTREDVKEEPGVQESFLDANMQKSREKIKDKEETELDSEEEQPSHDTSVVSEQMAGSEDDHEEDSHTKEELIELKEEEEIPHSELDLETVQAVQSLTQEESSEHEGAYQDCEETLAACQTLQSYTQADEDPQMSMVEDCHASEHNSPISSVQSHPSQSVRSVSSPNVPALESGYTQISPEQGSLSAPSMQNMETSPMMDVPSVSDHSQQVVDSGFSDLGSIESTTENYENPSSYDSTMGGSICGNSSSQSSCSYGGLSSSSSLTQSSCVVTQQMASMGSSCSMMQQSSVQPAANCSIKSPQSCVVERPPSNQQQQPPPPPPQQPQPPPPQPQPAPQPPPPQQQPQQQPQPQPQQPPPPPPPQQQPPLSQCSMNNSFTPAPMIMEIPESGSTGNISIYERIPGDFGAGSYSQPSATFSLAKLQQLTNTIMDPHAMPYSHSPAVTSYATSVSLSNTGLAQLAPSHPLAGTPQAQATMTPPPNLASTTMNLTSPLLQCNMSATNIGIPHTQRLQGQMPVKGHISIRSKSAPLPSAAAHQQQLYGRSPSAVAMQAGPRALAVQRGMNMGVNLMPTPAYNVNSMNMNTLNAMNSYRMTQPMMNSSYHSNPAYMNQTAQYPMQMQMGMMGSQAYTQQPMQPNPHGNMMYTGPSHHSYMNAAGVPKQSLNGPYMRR

KAT7 = KAT7 (Homo sapiens (Human), UniProt O95251); assay: KAT assay (SAMDI mass spectrometry), KAT7; type: biochemical;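 also: Baculovirus-expressed enzyme acetylating a histone peptide at room temperature, percent conversion from product and substrate peak areas, Ki from a Morrison tight-binding competitive fit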
Chain of KAT7 (O95251 whole entry): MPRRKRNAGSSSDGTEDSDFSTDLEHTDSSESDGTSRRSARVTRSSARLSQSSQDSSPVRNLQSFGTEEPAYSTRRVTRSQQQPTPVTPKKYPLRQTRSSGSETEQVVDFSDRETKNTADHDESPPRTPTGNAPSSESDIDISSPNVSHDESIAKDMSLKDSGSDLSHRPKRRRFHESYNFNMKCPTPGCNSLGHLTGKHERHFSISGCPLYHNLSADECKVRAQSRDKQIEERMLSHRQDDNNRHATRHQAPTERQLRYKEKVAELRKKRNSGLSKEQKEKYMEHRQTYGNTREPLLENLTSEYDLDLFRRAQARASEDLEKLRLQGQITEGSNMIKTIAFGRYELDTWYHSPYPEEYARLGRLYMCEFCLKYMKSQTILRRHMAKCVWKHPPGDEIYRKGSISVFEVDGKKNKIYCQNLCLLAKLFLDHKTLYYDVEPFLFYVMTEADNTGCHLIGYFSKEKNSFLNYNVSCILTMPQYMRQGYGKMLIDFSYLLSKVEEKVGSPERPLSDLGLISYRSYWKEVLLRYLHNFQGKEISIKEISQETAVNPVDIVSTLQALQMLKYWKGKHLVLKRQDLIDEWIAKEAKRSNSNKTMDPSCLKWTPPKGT

[1] = KAT6a Ki at 1 μM AcCoA, 1 μM AcCoA
[2] = KAT6a Ki at 10 μM AcCoA, 10 μM AcCoA
[3] = read-out: KAT6a Ki at 1 μM AcCoA, 1 μM AcCoA
[4] = read-out: KAT7 Ki at 1 μM AcCoA
[5] = read-out: KAT6a Ki at 10 μM AcCoA, 10 μM AcCoA

| Ki (KAT6A; [1]) [nM] | Ki (KAT7; KAT7 Ki at 1 μM AcCoA) [nM] | Ki (KAT6A; [2]) [nM] | Ki (KAT6A; [3]) [nM] | Ki (KAT7; [4]) [nM] | Ki (KAT6A; [5]) [nM] | SMILES |
| --- | --- | --- | --- | --- | --- | --- |
| 72 | 1300 |  |  |  |  | COc1cccc(OC)c1S(=O)(=O)Nc1noc2cc(C(O)c3ncco3)cc(OC)c12 (single isomer, unassigned) [Example 108, N-{6-[(S*)-hydroxy(1,3-oxazol-2-yl)methyl]-4-methoxy-1,2-benzoxazol-3-yl}-2,6-dimethoxybenzenesulfonamide] |
| 44 | 3100 |  |  |  |  | COc1cccc(OC)c1S(=O)(=O)Nc1noc2cc(C(O)c3ncco3)cc(OC)c12 (single isomer, unassigned) [Example 109, N-{6-[(R*)-hydroxy(1,3-oxazol-2-yl)methyl]-4-methoxy-1,2-benzoxazol-3-yl}-2,6-dimethoxybenzenesulfonamide] |
| 82 | 1500 |  |  |  |  | COc1cccc(OC)c1S(=O)(=O)Nc1noc2cc(C(O)c3ccon3)cc(OC)c12 (single isomer, unassigned) [Example 112] |
| 14 | 2800 |  |  |  |  | COc1cccc(OC)c1S(=O)(=O)Nc1noc2cc(C(O)c3ccon3)cc(OC)c12 (single isomer, unassigned) [Example 113] |
| 1220 | > 15000 |  |  |  |  | COc1cccc(OC)c1S(=O)(=O)Nc1noc2cc(C(O)c3ncccn3)cc(OC)c12 (single isomer, unassigned) [Example 115] |
| 831 | 2400 | 212 |  |  |  | COc1cccc(OC)c1S(=O)(=O)Nc1noc2cc(C(O)c3cnoc3)cc(OC)c12 (single isomer, unassigned) [Example 120] |
| 1580 | > 15000 | > 600 |  |  |  | COc1cccc(OC)c1S(=O)(=O)Nc1noc2cc(C(O)c3cnoc3)cc(OC)c12 (single isomer, unassigned) [Example 121] |
| 230 | 4150 |  |  |  |  | COc1cccc(OC)c1S(=O)(=O)Nc1noc2cc(C(O)c3cocn3)cc(OC)c12 (single isomer, unassigned) [Example 126] |
|  |  |  | 11.1 | 860 | 5.23 | COc1cc(Cn2cccn2)cc2onc(NS(=O)(=O)c3cc(C)ccc3F)c12 [Example 58] |
|  |  |  | 13 | 220 | 6.25 | COc1cccc(S(=O)(=O)Nc2noc3cc(Cn4cccn4)cc(OC)c23)c1 [Example 59] |
|  |  |  | 9.81 | 420 | 4.64 | COc1cc(Cn2cccn2)cc2onc(NS(=O)(=O)c3ccc(OC4CC4)cc3)c12 [Example 60] |
|  |  |  | 9.64 | 360 | 3.9 | COc1cc(Cn2cccn2)cc2onc(NS(=O)(=O)c3c(F)cc(C)cc3F)c12 [Example 62] |
|  |  |  | 15.8 | 940 | 10.9 | COc1cc(Cn2cccn2)cc2onc(NS(=O)(=O)c3cccc(F)c3Cl)c12 [Example 63] |
|  |  |  | 25.3 | 630 | 11 | COc1cc(Cn2cccn2)cc2onc(NS(=O)(=O)c3cc(F)c(F)c(F)c3)c12 [Example 64] |
|  |  |  | 95.4 | 4050 | 65.6 | CNC(=O)c1ccc(S(=O)(=O)Nc2noc3cc(Cn4cccn4)cc(OC)c23)cc1 [Example 66] |
|  |  |  | 20 | 1760 | 10.2 | COCc1ccccc1S(=O)(=O)Nc1noc2cc(Cn3cccn3)cc(OC)c12 [Example 67] |
|  |  |  | 14.9 | 250 | 10.5 | COc1cc(Cn2cccn2)cc2onc(NS(=O)(=O)c3cc(F)c(Cl)cc3F)c12 [Example 68] |
|  |  |  |  | 370 | 9.1 | CCOc1ccc(S(=O)(=O)Nc2noc3cc(Cn4cccn4)cc(OC)c23)cc1 [Example 69] |
|  |  |  | 24.8 | 2870 | 13.6 | COC(=O)c1c(C)cccc1S(=O)(=O)Nc1noc2cc(Cn3cccn3)cc(OC)c12 [Example 74] |
|  |  |  | 15.6 | 360 | 5.32 | COc1cc(OC)cc(S(=O)(=O)Nc2noc3cc(Cn4cccn4)cc(OC)c23)c1 [Example 80] |
|  |  |  | 18.2 | 1620 | 9.96 | CCc1nc2cc(S(=O)(=O)Nc3noc4cc(Cn5cccn5)cc(OC)c34)ccc2o1 [Example 81] |
|  |  |  | 16.9 | 640 | 12.2 | COc1cc(S(=O)(=O)Nc2noc3cc(Cn4cccn4)cc(OC)c23)ccc1F [Example 82] |

Continued, compound first:

| SMILES | Ki (KAT6A; [1]) [nM] | Ki (KAT7; KAT7 Ki at 1 μM AcCoA) [nM] | Ki (KAT6A; [2]) [nM] | Ki (KAT6A; [3]) [nM] | Ki (KAT7; [4]) [nM] | Ki (KAT6A; [5]) [nM] |
| --- | --- | --- | --- | --- | --- | --- |
| COc1cccc(OC)c1S(=O)(=O)Nc1noc2cc(C(O)c3cc[nH]n3)cc(OC)c12 (single isomer, unassigned) [Example 117] | 202 | 200 |  |  |  |  |
| COc1cccc(OC)c1S(=O)(=O)Nc1noc2cc(C(O)c3cc[nH]n3)cc(OC)c12 (single isomer, unassigned) [Example 118] | 357 | 2300 |  |  |  |  |
| COc1cccc(OC)c1S(=O)(=O)Nc1noc2cc(Cn3ncc4ccccc43)cc(OC)c12 [Example 30] |  |  |  | 60 | 1100 |  |
| COc1cccc(OC)c1S(=O)(=O)Nc1noc2cc(Cn3cccn3)cc(Cl)c12 [Example 33] |  |  |  | 3.1 | 310 |  |
| COc1ccc(S(=O)(=O)Nc2noc3cc(Cn4cccn4)ccc23)c(OC)c1 [Example 35] |  |  |  | 15 | 420 |  |
| COc1ccc(Cl)cc1S(=O)(=O)Nc1noc2cc(Cn3cccn3)ccc12 [Example 36] |  |  |  | 17 | 980 |  |
| COCc1ccc(OC)c(S(=O)(=O)Nc2noc3cc(Cn4cccn4)ccc23)c1 [Example 37] |  |  |  | 17 | 4600 |  |
| COc1cc(C)ccc1S(=O)(=O)Nc1noc2cc(Cn3cccn3)ccc12 [Example 38] |  |  |  | 16 | 530 |  |
| CCOc1cc2c(NS(=O)(=O)c3c(OC)cccc3OC)noc2cc1Cn1cccn1 [Example 40] |  |  |  | 0.47 | 380 |  |
| COc1cc2c(cc1S(=O)(=O)Nc1noc3cc(Cn4cccn4)cc(OC)c13)CCOC2 [Example 43] |  |  |  | 3.6 | 570 |  |
| COc1cc(Cn2cccn2)cc2onc(NS(=O)(=O)c3ccc(C(F)(F)F)cc3)c12 [Example 46] |  |  |  | 32.9 | 1030 | 13.1 |
| COc1cc(Cn2cccn2)cc2onc(NS(=O)(=O)c3cc(C)cc(C)c3)c12 [Example 48] |  |  |  | 14.9 | 410 | 6.51 |
| COc1cc(Cn2cccn2)cc2onc(NS(=O)(=O)c3cc(F)ccc3C)c12 [Example 49] |  |  |  | 9.77 | 370 | 4.14 |
| COc1cc(Cn2cccn2)cc2onc(NS(=O)(=O)c3ccccc3C(F)(F)F)c12 [Example 52] |  |  |  | 14.6 | 660 | 7.32 |
| COc1cc(Cn2cccn2)cc2onc(NS(=O)(=O)c3cccc(C(F)(F)F)c3)c12 [Example 53] |  |  |  | 16.1 | 300 | 8.78 |
| COc1cc(Cn2cccn2)cc2onc(NS(=O)(=O)c3cccc(F)c3F)c12 [Example 54] |  |  |  | 57 | 1160 | 38 |
| COC(=O)c1cccc(C)c1S(=O)(=O)Nc1noc2cc(Cn3cccn3)cc(OC)c12 [Example 55] |  |  |  | 291 | 15000 | 178 |
| COc1cc(Cn2cccn2)cc2onc(NS(=O)(=O)c3cccc(F)c3C)c12 [Example 56] |  |  |  | 14.9 | 600 | 7.31 |
| COc1cc(Cn2cccn2)cc2onc(NS(=O)(=O)c3cc(F)cc(F)c3)c12 [Example 57] |  |  |  | 16 | 450 |  |
